Laboratory results published in ChEMBL document CHEMBL2417377, “Hit-to-lead optimization and kinase selectivity of imidazo[1,2-a]quinoxalin-4-amine derived JNK1 inhibitors” (Bioorg Med Chem Lett, 2013).

Assays:
PC-3 = assay: Inhibition of ANPbeta in human PC3 cell lysates at 10 uM using desthiobiotin-tagged ATP probe AX9989 followed by trypsinization by LC/MS analysis; type: cell-free
[1] = molecular target: MAP/microtubule affinity-regulating kinase 3 (Homo sapiens) (UniProt P27448); assay: Inhibition of MARK3 in human PC3 cell lysates at 10 uM using desthiobiotin-tagged ATP probe AX9989 followed by trypsinization by LC/MS analysis; conditions: PC-3
[2] = molecular target: T1, Dual specificity mitogen-activated protein kinase kinase 3 (Homo sapiens) (UniProt P46734); assay: Inhibition of MAP2K3 in human PC3 cell lysates at 10 uM using desthiobiotin-tagged ATP probe AX9989 followed by trypsinization by LC/MS analysis; conditions: PC-3
T1 sequence (whole entry): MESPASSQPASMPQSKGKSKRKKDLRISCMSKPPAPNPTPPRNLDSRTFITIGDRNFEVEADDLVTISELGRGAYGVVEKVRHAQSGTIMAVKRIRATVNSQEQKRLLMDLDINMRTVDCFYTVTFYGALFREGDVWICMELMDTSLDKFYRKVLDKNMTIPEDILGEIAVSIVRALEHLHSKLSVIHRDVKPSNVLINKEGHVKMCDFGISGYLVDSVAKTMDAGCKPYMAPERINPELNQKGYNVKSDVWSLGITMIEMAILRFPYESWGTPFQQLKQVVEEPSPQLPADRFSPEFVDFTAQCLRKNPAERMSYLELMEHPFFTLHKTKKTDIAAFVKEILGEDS

[3] = molecular target: SRSF protein kinase 1 (Homo sapiens) (UniProt Q96SB4); assay: Inhibition of SRPK1 in human PC3 cell lysates at 10 uM using desthiobiotin-tagged ATP probe AX9989 followed by trypsinization by LC/MS analysis; conditions: PC-3
[4] = molecular target: Cyclin-dependent kinase 16 (Homo sapiens) (UniProt Q00536); assay: Inhibition of PCTAIRE1 in human PC3 cell lysates at 10 uM using desthiobiotin-tagged ATP probe AX9989 followed by trypsinization by LC/MS analysis; conditions: PC-3
[5] = molecular target: Interferon-induced, double-stranded RNA-activated protein kinase (Homo sapiens) (UniProt P19525); assay: Inhibition of PKR in human PC3 cell lysates at 10 uM using desthiobiotin-tagged ATP probe AX9989 followed by trypsinization by LC/MS analysis; conditions: PC-3
[6] = molecular target: DNA-dependent protein kinase catalytic subunit (Homo sapiens) (UniProt P78527); assay: Inhibition of DNAPK in human PC3 cell lysates at 10 uM using desthiobiotin-tagged ATP probe AX9989 followed by trypsinization by LC/MS analysis; conditions: PC-3
[7] = molecular target: Casein kinase I delta/epsilon (Homo sapiens) (UniProt P48730+P49674); assay: Inhibition of CK1delta/CK1epsilon in human PC3 cell lysates at 10 uM using desthiobiotin-tagged ATP probe AX9989 followed by trypsinization by LC/MS analysis; type: protein-complex assay; conditions: PC-3
[8] = molecular target: T2, Dual specificity mitogen-activated protein kinase kinase 4 (Homo sapiens) (UniProt P45985); assay: Inhibition of MAP2K4 in human PC3 cell lysates at 10 uM using desthiobiotin-tagged ATP probe AX9989 followed by trypsinization by LC/MS analysis; conditions: PC-3
T2 sequence (whole entry): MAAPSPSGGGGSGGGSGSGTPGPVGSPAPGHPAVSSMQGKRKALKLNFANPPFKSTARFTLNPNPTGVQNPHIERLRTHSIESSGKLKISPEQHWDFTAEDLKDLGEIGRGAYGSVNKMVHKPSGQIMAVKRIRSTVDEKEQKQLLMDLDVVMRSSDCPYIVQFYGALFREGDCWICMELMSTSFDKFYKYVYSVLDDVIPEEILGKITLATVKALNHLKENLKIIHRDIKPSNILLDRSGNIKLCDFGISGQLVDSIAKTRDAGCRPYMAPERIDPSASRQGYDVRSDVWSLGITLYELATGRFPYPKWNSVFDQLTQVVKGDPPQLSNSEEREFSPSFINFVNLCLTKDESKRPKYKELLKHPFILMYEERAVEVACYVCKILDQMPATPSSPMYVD

[9] = molecular target: p38 delta/gamma (Homo sapiens) (UniProt O15264+P53778); assay: Inhibition of p38delta/gamma in human PC3 cell lysates at 10 uM using desthiobiotin-tagged ATP probe AX9989 followed by trypsinization by LC/MS analysis; type: protein assay; conditions: PC-3
[10] = molecular target: eIF-2-alpha kinase GCN2 (Homo sapiens) (UniProt Q9P2K8); assay: Inhibition of GCN2 in human PC3 cell lysates at 10 uM using desthiobiotin-tagged ATP probe AX9989 followed by trypsinization by LC/MS analysis; conditions: PC-3
Chain of eIF-2-alpha kinase GCN2 (Homo sapiens) (Q9P2K8 whole entry): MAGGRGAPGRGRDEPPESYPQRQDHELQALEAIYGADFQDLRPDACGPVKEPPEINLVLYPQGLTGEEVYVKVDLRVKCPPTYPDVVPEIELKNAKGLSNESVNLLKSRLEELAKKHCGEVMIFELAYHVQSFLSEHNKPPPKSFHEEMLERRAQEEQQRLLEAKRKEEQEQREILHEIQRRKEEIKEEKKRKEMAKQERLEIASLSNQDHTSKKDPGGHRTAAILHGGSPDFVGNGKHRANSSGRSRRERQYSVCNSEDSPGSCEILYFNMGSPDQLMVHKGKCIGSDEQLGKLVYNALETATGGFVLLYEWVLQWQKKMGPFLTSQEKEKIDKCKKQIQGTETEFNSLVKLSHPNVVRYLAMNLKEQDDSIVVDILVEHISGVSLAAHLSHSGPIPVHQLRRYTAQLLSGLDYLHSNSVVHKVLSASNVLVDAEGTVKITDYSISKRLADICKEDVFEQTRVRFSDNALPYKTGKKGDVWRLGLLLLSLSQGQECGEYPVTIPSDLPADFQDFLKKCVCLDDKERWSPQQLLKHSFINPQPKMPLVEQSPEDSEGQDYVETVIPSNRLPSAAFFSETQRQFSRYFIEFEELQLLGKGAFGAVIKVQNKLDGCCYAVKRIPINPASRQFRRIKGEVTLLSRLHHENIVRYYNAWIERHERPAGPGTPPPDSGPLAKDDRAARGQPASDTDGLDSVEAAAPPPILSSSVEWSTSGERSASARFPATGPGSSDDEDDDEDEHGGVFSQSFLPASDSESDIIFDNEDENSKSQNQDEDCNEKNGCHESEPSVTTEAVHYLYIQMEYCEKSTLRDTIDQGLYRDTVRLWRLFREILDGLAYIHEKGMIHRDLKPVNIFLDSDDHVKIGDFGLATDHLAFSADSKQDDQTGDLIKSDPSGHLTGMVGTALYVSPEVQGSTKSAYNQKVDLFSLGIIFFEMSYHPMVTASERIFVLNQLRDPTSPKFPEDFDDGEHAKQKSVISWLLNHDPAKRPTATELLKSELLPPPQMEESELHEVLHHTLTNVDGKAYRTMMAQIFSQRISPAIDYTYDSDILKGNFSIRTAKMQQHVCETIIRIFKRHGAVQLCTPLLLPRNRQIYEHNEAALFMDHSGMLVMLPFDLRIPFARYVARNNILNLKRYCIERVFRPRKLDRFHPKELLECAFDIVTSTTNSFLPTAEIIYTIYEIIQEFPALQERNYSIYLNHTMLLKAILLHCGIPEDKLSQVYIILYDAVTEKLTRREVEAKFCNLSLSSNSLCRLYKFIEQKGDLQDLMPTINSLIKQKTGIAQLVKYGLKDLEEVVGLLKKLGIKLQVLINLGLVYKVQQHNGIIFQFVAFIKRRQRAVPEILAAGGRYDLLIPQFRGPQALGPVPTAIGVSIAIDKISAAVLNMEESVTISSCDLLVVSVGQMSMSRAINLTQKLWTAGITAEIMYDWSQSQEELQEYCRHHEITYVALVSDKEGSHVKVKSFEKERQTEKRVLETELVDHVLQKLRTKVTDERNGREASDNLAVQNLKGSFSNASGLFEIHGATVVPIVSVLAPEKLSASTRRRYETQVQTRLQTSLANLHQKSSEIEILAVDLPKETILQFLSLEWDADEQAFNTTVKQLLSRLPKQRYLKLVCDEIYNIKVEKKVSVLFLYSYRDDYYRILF

[11] = molecular target: Mitogen-activated protein kinase kinase kinase 11 (Homo sapiens) (UniProt Q16584); assay: Inhibition of MLK3 in human PC3 cell lysates at 10 uM using desthiobiotin-tagged ATP probe AX9989 followed by trypsinization by LC/MS analysis; conditions: PC-3
Chain of Mitogen-activated protein kinase kinase kinase 11 (Homo sapiens) (Q16584 whole entry, looked up): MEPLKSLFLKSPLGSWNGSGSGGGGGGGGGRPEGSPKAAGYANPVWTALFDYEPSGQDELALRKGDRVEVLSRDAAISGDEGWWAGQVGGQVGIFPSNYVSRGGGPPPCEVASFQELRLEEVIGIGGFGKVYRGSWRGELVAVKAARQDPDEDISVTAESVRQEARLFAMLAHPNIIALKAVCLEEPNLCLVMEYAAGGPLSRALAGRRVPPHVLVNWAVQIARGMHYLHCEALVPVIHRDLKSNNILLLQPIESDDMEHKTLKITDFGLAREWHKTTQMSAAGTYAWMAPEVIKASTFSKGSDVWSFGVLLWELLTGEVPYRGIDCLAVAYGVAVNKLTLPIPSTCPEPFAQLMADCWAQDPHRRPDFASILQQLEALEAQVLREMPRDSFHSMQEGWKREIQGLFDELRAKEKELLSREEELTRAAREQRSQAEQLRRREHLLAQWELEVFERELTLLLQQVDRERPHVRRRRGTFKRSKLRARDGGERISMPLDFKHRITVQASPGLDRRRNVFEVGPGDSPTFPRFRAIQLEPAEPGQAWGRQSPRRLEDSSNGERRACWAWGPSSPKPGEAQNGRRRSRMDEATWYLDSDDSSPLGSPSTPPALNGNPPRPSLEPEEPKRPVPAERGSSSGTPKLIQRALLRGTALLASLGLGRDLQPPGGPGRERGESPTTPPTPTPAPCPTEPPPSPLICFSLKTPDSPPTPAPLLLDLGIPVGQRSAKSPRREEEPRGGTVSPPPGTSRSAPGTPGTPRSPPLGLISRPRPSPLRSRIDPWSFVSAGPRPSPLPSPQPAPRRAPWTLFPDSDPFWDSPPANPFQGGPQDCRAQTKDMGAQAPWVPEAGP

[12] = molecular target: Phosphatidylinositol 4-kinase beta (Homo sapiens) (UniProt Q9UBF8); assay: Inhibition of PI4KB in human PC3 cell lysates at 10 uM using desthiobiotin-tagged ATP probe AX9989 followed by trypsinization by LC/MS analysis; conditions: PC-3
[13] = molecular target: Rho-associated protein kinase 2 (Homo sapiens) (UniProt O75116); assay: Inhibition of ROCK2 in human PC3 cell lysates at 10 uM using desthiobiotin-tagged ATP probe AX9989 followed by trypsinization by LC/MS analysis; conditions: PC-3
Chain of Rho-associated protein kinase 2 (Homo sapiens) (O75116 whole entry, looked up): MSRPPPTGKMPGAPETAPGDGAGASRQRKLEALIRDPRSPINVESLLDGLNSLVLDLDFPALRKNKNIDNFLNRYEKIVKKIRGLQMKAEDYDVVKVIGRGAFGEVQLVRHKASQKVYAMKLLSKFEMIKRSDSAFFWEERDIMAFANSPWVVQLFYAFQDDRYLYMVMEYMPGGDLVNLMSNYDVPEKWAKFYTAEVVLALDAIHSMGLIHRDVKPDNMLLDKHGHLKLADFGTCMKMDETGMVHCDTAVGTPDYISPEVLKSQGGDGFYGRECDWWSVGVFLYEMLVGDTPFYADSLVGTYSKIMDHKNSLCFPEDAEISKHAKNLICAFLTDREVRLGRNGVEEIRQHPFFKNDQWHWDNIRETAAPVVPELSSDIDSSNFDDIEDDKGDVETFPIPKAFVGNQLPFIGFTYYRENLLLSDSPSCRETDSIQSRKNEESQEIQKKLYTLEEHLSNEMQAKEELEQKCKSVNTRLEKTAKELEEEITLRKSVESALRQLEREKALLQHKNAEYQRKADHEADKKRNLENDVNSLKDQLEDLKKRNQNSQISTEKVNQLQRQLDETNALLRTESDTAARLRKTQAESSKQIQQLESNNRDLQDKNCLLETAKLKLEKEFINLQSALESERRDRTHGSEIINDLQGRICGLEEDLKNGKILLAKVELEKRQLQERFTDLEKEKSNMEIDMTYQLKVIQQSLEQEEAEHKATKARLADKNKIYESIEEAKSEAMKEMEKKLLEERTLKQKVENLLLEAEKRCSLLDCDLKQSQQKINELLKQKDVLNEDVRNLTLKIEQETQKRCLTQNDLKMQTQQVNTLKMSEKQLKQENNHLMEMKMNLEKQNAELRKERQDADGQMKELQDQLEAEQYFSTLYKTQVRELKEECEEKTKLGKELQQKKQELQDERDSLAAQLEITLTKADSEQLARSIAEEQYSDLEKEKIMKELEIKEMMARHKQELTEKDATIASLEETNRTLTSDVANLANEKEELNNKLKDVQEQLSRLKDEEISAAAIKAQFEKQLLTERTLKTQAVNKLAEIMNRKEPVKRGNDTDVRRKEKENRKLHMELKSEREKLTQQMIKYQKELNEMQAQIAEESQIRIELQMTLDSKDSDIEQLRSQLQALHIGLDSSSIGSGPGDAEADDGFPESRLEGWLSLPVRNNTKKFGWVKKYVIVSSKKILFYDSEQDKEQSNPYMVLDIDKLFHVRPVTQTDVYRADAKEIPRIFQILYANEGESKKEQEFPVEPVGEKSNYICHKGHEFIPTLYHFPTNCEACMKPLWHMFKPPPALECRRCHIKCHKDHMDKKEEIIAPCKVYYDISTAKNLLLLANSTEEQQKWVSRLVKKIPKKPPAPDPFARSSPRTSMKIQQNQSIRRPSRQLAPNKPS

[14] = molecular target: Mitogen-activated protein kinase 8 (Homo sapiens, UniProt P45983); assay: Inhibition of human recombinant histidine-tagged full-length JNK1 expressed in insect cells activated by GST-tagged MAP2K7 using ATF2 as substrate after 1 hr by luminescence plate reader analysis
[15] = molecular target: Glycogen synthase kinase-3 beta (Homo sapiens) (UniProt P49841); assay: Inhibition of GSK3beta in human PC3 cell lysates at 10 uM using desthiobiotin-tagged ATP probe AX9989 followed by trypsinization by LC/MS analysis; conditions: PC-3
[16] = molecular target: Serine/threonine-protein kinase PRP4 homolog (Homo sapiens) (UniProt Q13523); assay: Inhibition of PRP4 in human PC3 cell lysates at 10 uM using desthiobiotin-tagged ATP probe AX9989 followed by trypsinization by LC/MS analysis; conditions: PC-3
Chain of Serine/threonine-protein kinase PRP4 homolog (Homo sapiens) (Q13523 whole entry): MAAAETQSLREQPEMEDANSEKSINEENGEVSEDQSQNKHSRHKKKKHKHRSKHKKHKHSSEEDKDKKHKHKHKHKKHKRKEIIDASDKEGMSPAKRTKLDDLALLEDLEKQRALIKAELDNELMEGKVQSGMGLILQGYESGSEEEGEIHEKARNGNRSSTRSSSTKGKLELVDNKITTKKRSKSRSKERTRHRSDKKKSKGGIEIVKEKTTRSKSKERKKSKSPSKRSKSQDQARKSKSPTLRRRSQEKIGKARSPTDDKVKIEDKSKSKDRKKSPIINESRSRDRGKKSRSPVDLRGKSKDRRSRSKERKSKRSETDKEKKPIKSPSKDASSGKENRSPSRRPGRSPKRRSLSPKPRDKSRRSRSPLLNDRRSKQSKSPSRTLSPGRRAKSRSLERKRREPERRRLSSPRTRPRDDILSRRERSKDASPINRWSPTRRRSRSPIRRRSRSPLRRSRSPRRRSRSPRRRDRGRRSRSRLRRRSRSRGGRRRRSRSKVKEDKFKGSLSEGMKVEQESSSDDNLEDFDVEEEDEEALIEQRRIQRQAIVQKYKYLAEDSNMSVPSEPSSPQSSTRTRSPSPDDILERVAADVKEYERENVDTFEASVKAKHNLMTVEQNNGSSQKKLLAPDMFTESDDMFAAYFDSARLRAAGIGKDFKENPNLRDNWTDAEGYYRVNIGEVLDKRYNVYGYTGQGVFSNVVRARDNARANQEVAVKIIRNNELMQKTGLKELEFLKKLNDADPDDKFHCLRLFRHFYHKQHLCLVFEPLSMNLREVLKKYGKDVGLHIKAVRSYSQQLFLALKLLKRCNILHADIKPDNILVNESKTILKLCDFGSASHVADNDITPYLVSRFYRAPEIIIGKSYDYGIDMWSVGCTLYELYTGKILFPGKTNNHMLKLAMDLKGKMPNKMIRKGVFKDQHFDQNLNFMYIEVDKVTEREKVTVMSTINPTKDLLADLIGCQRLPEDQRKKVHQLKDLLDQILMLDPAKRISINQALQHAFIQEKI

## CC[C@@H](NC(=O)c1ccc2nc(N[C@H]3CC[C@H](O)CC3)c3nccn3c2c1)c1ccccc1
PC-3
  inhibition: < 35%
[1]
  inhibition: < 35%
[2]
  inhibition: < 35%
[3]
  inhibition: < 35%
[4]
  inhibition: < 35%
[5]
  inhibition: < 35%
[6]
  inhibition: < 35%
[7]
  inhibition: < 35%
[8]
  inhibition: < 35%
[9]
  inhibition: < 35%
[10]
  inhibition: 38.5%
[11]
  inhibition: < 35%
[12]
  inhibition: < 35%
[13]
  inhibition: < 35%
[14]
  IC50: 140 nM
[15]
  inhibition: < 35%
[16]
  inhibition: < 35%
